Patent US5200409A, “Composition and use of substituted 1,3-dithiolo-and 1,4-dithiinoquinoxalines as an antimicrobial” (The Dow Chemical Company, priority 1992, dated 1993)
In brackets after ≈: the same amount, converted by molar mass. Where two headings read alike, the source gives them in different places.

Assays:
Escherichia coli (Ec) = assay: Minimum inhibitory concentration (MIC) in nutrient agar; assay type: cell-based, Escherichia coli ATCC 11229
Method: (§1) The minimum inhibitory concentration (MIC) for the compounds listed in Table I is determined for 9 bacteria, using nutrient agar: and 7 yeast and fungi, using malt yeast agar. A one percent solution of the test compound is prepared in a mixture of acetone and water. Nutrient agar is prepared at pH 6.8, representing a neutral medium, and at pH 8.2, representing an alkaline medium. The nutrient agars are prepared by adding 23 g of nutrient agar to one-liter of deionized water. In addition, the alkaline medium is prepared by adjusting a 0.04M solution of N-[tris-(hydroxymethyl)methyl]-glycine buffered deionized water with concentrated sodium hydroxide to a pH of […]. Malt yeast agar is prepared by adding 3 g yeast extract and 45 g malt agar per liter of deionized water. The specific agar is dispensed in 30 ml aliquots into 25×200 mm test tubes, capped and autoclaved for 15 minutes at 115° C. The test tubes containing the agar are cooled in a water bath until the temperature of the agar is 48° C. Then, an appropriate amount of the one percent solution of the test compound is added (except in the controls where no compound is added) to the respective test tubes so that the final concentrations are 500, 250, 100, 50, 25, 10, 5, 2.5, 1.0 and zero parts per million of the test compound in the agar, thus having a known concentration of test compound dispersed therein. The contents of the test tubes are then transferred to respective petri plates. After drying for 24 hours, the petri plates containing nutrient agar are inoculated with bacteria and those containing malt yeast agar are inoculated with yeast and fungi.
(§2) The inoculation with bacteria is accomplished by using the following procedure. Twenty-four hour-cultures of each of the bacteria are prepared by incubating the respective bacteria in tubes containing nutrient broth for 24 hours at 30° C. in a shaker. Dilutions of each of the 24 hour-cultures are made so that nine separate suspensions (one for each of the nine test bacteria) are made, each containing 10^8 colony forming units (CFU) per ml of suspension of a particular bacteria. Aliquots of 0.3 ml of each of the bacterial suspensions are used to fill the individual wells of Steer's Replicator. For each microbial suspension, 0.3 ml was used to fill three wells (i.e., three wells of 0.3 ml each) so that for the nine different bacteria, 27 wells are filled. The Steer's Replicator is then used to inoculate both the neutral and alkaline pH nutrient agar petri plates.
(§3) The inoculated petri plates are incubated at 30° C. for 48 hours and then read to determine if the test compound which is incorporated into the agar prevented growth of the respective bacteria.
(§4) Table II lists the bacteria, yeast and fungi used in the MIC test described above along with their respective American Type Culture Collection (ATCC) identification numbers.

[1] = tested on: Staphylococcus aureus (Sa); assay: as above; assay type: cell-based, Staphylococcus aureus ATCC 6538
Method: as §1, §2, §3, §4

[2] = tested on: Pseudomonas aeruginosa (PRD-10); assay: as above; assay type: cell-based, Pseudomonas aeruginosa ATCC 15442
Method: as §1, §2, §3, §4

Candida albicans (Ca) = assay: Minimum inhibitory concentration (MIC) in malt yeast agar; assay type: cell-based, Candida albicans ATCC 10231; conditions: malt yeast agar; 30° C.; 48 hours for yeast; read-out: Minimum Inhibitory Concentration, Ca
Method: as §1
(§5) The inoculation with the yeast and fungi is accomplished as follows. Cultures of yeast and fungi are incubated for seven days on malt yeast agar at 30° C. These cultures are used to prepare suspensions by the following procedure. A suspension of each organism is prepared by adding 10 ml of sterile saline and 10 microliters of octylphenoxy polyethoxy ethanol to the agar slant of yeast or fungi. The sterile saline/octylphenoxy polyethoxy ethanol solution is then agitated with a sterile swab to suspend the microorganism grown on the slant. Each resulting suspension is diluted into sterile saline (1 part suspension: 9 parts sterile saline). Aliquots of these dilutions are placed in individual wells of Steer's Replicator and petri plates inoculated as previously described. The petri plates are incubated at 30° C. and read after 48 hours for yeast and 72 hours for fungi.
as §4

[3] = tested on: Aureobasidium pullulan (Ap); assay: as above; assay type: cell-based, Aureobasidium pullulan ATCC 16622; conditions: malt yeast agar; 30° C.; 48 hours for yeast and 72 hours for fungi; read-out: Minimum Inhibitory Concentration, Ap
Method: as §1, §5, §4

[4] = tested on: Salmonella choleraesuis (Sc); assay: Minimum inhibitory concentration (MIC) in nutrient agar; assay type: cell-based, Salmonella choleraesuis ATCC 10708; conditions: Salmonella enterica
Method: as §1, §2, §3, §4

[5] = tested on: Saccharomyces cerevisiae (Sc); assay: Minimum inhibitory concentration (MIC) in malt yeast agar; assay type: cell-based, Saccharomyces cerevisiae ATCC 4105; conditions: malt yeast agar, 30° C., 48 hours for yeast, read-out: Minimum Inhibitory Concentration, Sc
Method: as §1, §5, §4

Fusarium oxysporum (Fo) = assay: as above; assay type: cell-based, Fusarium oxysporum ATCC 48112; conditions: read-out: Minimum Inhibitory Concentration, Fo
Method: as §1, §5, §4

[6] = tested on: Pseudomonas aeruginosa (Pa); assay: Minimum inhibitory concentration (MIC) in nutrient agar; assay type: cell-based, Pseudomonas aeruginosa ATCC 10145; conditions: 48 hours
Method: as §1, §2, §3, §4

[7] = tested on: Enterobacter aerogenes (Ea); assay: as above; assay type: cell-based, Enterobacter aerogenes ATCC 13048; conditions: Klebsiella aerogenes
Method: as §1, §2, §3, §4

[8] = tested on: Klebsiella pneumoniae (Kp); assay: as above; assay type: cell-based, Klebsiella pneumoniae ATCC 8308
Method: as §1, §2, §3, §4

Trichoderma viride (Tv) = assay: Minimum inhibitory concentration (MIC) in malt yeast agar; assay type: cell-based, Trichoderma viride ATCC 8678; conditions: read-out: Minimum Inhibitory Concentration, Tv
Method: as §1, §5, §4

Aspergillus niger (An) = assay: as above; assay type: cell-based, Aspergillus niger ATCC 16404; conditions: malt yeast agar; 30° C.; 72 hours for fungi; read-out: Minimum Inhibitory Concentration, An
Method: as §1, §5, §4

Proteus vulgaris (Pv) = assay: Minimum inhibitory concentration (MIC) in nutrient agar; assay type: cell-based, Proteus vulgaris ATCC 881
Method: as §1, §2, §3, §4

[9] = tested on: Penicillium chrysogenum (Pc); assay: Minimum inhibitory concentration (MIC) in malt yeast agar; assay type: cell-based, Penicillium chrysogenum ATCC 9480; conditions: malt yeast agar; 30° C.; 72 hours for fungi; read-out: Minimum Inhibitory Concentration, Pc
Method: as §1, §5, §4

Bacillus subtilis (Bs) = assay: Minimum inhibitory concentration (MIC) in nutrient agar; assay type: cell-based, Bacillus subtilis ATCC 8473; conditions: 30° C., 48 hours, read-out: Minimum Inhibitory Concentration, Bs
Method: as §1, §2, §3, §4

[10] = 48 h, pH 8.2, read-out: Minimum Inhibitory Concentration, Ec
[11] = pH 8.2, nutrient agar, 30° C., 48 hours, read-out: Minimum Inhibitory Concentration, Sa
[12] = malt yeast agar, 30° C., 72 hours for fungi
[13] = pH 6.8, nutrient agar, 30° C., 48 hours, read-out: Minimum Inhibitory Concentration, Kp

SMILES: Cc1cc2nc3c(nc2cc1[N+](=O)[O-])SC(C#N)=C(C#N)S3 [F, 7-nitro-8-methyl-1,4-dithiino-(2,3-b)-quinoxaline-2,3-dicarbonitrile]
- MIC (Escherichia coli (Ec); [10]): > 500 µg/mL
- MIC (Escherichia coli (Ec); pH 6.8, nutrient agar, 30° C., 48 hours, read-out: Minimum Inhibitory Concentration, Ec): 250 µg/mL (≈ 764 µM)
- MIC ([1]; 48 h, pH 6.8, read-out: Minimum Inhibitory Concentration, Sa): < 10 µg/mL
- MIC [1, 11]: 50 µg/mL (≈ 153 µM)
- MIC ([2]; pH 6.8, nutrient agar, 30° C., 48 hours, read-out: Minimum Inhibitory Concentration, PRD): > 500 µg/mL
- MIC ([2]; pH 8.2, nutrient agar, 30° C., 48 hours, read-out: Minimum Inhibitory Concentration, PRD): > 500 µg/mL
- MIC (Candida albicans (Ca)): < 10 µg/mL
- MIC [3]: < 10 µg/mL
- MIC ([4]; pH 6.8, nutrient agar, 30° C., 48 hours, read-out: Minimum Inhibitory Concentration, Sc): 250 µg/mL (≈ 764 µM)
- MIC ([4]; pH 8.2, nutrient agar, 30° C., 48 hours, read-out: Minimum Inhibitory Concentration, Sc): > 500 µg/mL
- MIC [5]: < 10 µg/mL
- MIC (Fusarium oxysporum (Fo); [12]): < 10 µg/mL
- MIC ([6]; pH 6.8, 30° C.): 500 µg/mL (≈ 1530 µM)
- MIC ([6]; pH 8.2, 30° C.): > 500 µg/mL
- MIC ([7]; pH 6.8, nutrient agar, 30° C., 48 hours, read-out: Minimum Inhibitory Concentration, Ea): 500 µg/mL (≈ 1530 µM)
- MIC ([7]; pH 8.2, nutrient agar, 30° C., 48 hours, read-out: Minimum Inhibitory Concentration, Ea): > 500 µg/mL
- MIC [8, 13]: 100 µg/mL (≈ 305 µM)
- MIC ([8]; pH 8.2, nutrient agar, 30° C., 48 hours, read-out: Minimum Inhibitory Concentration, Kp): > 500 µg/mL
- MIC (Trichoderma viride (Tv); [12]): 25 µg/mL (≈ 76.4 µM)
- MIC (Aspergillus niger (An)): < 10 µg/mL
- MIC (Proteus vulgaris (Pv); pH 6.8, nutrient agar, 30° C., 48 hours, read-out: Minimum Inhibitory Concentration, Pv): 50 µg/mL (≈ 153 µM)
- MIC (Proteus vulgaris (Pv); pH 8.2, nutrient agar, 30° C., 48 hours, read-out: Minimum Inhibitory Concentration, Pv): > 500 µg/mL
- MIC [9]: < 10 µg/mL
- MIC (Bacillus subtilis (Bs); pH 6.8, nutrient agar): < 10 µg/mL
- MIC (Bacillus subtilis (Bs); pH 8.2, nutrient agar): 50 µg/mL (≈ 153 µM)

SMILES: N#CC1=C(C#N)Sc2nc3cc(C#N)ccc3nc2S1 [H, 7-cyano-1,4-dithiino-(2,3-b)-quinoxaline-2,3-dicarbonitrile]
- MIC (Escherichia coli (Ec); 48 h, pH 6.8, read-out: Minimum Inhibitory Concentration, Ec): > 500 µg/mL
- MIC (Escherichia coli (Ec); [10]): > 500 µg/mL
- MIC ([1]; pH 6.8, nutrient agar, 30° C., 48 hours, read-out: Minimum Inhibitory Concentration, Sa): 25 µg/mL (≈ 85.2 µM)
- MIC [1, 11]: 50 µg/mL (≈ 170 µM)
- MIC ([2]; 48 h, pH 6.8, read-out: Minimum Inhibitory Concentration, PRD): > 500 µg/mL
- MIC ([2]; 48 h, pH 8.2, read-out: Minimum Inhibitory Concentration, PRD): > 500 µg/mL
- MIC (Candida albicans (Ca)): 25 µg/mL (≈ 85.2 µM)
- MIC [3]: < 10 µg/mL
- MIC ([4]; 48 h, pH 6.8, read-out: Minimum Inhibitory Concentration, Sc): > 500 µg/mL
- MIC ([4]; 48 h, pH 8.2, read-out: Minimum Inhibitory Concentration, Sc): > 500 µg/mL
- MIC [5]: < 10 µg/mL
- MIC (Fusarium oxysporum (Fo); 72 h): 50 µg/mL (≈ 170 µM)
- MIC ([6]; pH 6.8, 30° C.): > 500 µg/mL
- MIC ([6]; pH 8.2, 30° C.): > 500 µg/mL
- MIC ([7]; 48 h, pH 6.8, read-out: Minimum Inhibitory Concentration, Ea): > 500 µg/mL
- MIC ([7]; 48 h, pH 8.2, read-out: Minimum Inhibitory Concentration, Ea): > 500 µg/mL
- MIC ([8]; 48 h, pH 8.2, read-out: Minimum Inhibitory Concentration, Kp): > 500 µg/mL
- MIC [8, 13]: 500 µg/mL (≈ 1700 µM)
- MIC (Trichoderma viride (Tv); 72 h): 100 µg/mL (≈ 341 µM)
- MIC (Aspergillus niger (An)): 25 µg/mL (≈ 85.2 µM)
- MIC (Proteus vulgaris (Pv); 48 h, pH 6.8, read-out: Minimum Inhibitory Concentration, Pv): 500 µg/mL (≈ 1700 µM)
- MIC (Proteus vulgaris (Pv); 48 h, pH 8.2, read-out: Minimum Inhibitory Concentration, Pv): > 500 µg/mL
- MIC [9]: < 10 µg/mL
- MIC (Bacillus subtilis (Bs); pH 6.8, nutrient agar): < 10 µg/mL
- MIC (Bacillus subtilis (Bs); pH 8.2, nutrient agar): 50 µg/mL (≈ 170 µM)
